Consider 9 molecules from ChEMBL document CHEMBL1201862, “PubChem BioAssay data set” (2004).

Some test systems named below: SR; Malme-3M; K562; MDA-MB-435; NCI-H522; M14; SN12C; SNB-75; CCRF-CEM; SK-MEL-28; SW-620; ACHN; U-251; A549; HCT-15; LOX IMVI; 786-0; MOLT-4.
Common to all, as to assay: inhibition of tumour cell growth, NCI panel, 48 h

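1) Cells in 96-well plates. 2) Compound, 48 h, 5 concentrations. 3) Linear interpolation between surrounding doses. 4) Unreached endpoint = highest concentration. Abbreviation: GI50, concentration required for 50% inhibition of growth.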 Calls of active or inactive are those of the source. Cut-off read from the data, not from the text of the source: active = GI50 up to about 1.1 µM and inactive = higher. Where only a bound is given, the exact number is not on record here.

Take `CN(C)CCn1c(CO)nc2c1c(=O)n(C)c(=O)n2C`: the GI50 with SR, in the test on Malme-3M, with K562, in the test with MDA-MB-435, in the test with NCI-H522 and with M14 was > 100 µM (inactive) each time. The GI50 in the test with SN12C, in the test with SNB-75, in the test on CCRF-CEM, with SK-MEL-28, in the test with SW-620 and in the test on ACHN was > 100 µM (inactive) throughout. Moreover, the GI50 was > 100 µM (inactive) in the test with U-251; > 100 µM (inactive) with A549; > 100 µM in the test on HCT-15; > 100 µM (inactive) in the test on LOX IMVI; > 100 µM (inactive) with 786-0.
For the molecule `COc1ccc(S(=O)(=O)N(C)CC(=O)O)cc1`, the GI50 in the test on Malme-3M, in the test on K562, in the test with NCI-H522, in the test with M14, in the test on SN12C and in the test with SNB-75 was > 100 µM (inactive) throughout. Further, the GI50 in the test on CCRF-CEM, in the test on SK-MEL-28, in the test with SW-620, in the test with MOLT-4, in the test with ACHN and in the test with U-251 was > 100 µM (inactive) in each case. The GI50 in the test on A549 was > 100 µM (inactive); with HCT-15 it was > 100 µM; in the test with LOX IMVI, > 100 µM (inactive); with 786-0, > 100 µM (inactive).
As for `O=C(Nc1ccccc1C(=O)NCc1ccccc1)/C(=C/c1ccccc1O)NC(=O)c1ccccc1`, the GI50 with SR was > 100 µM (inactive); with K562, > 100 µM (inactive); with MDA-MB-435 it was 50.7 µM (inactive); in the test on NCI-H522, > 100 µM (inactive); in the test on M14 it was > 100 µM (inactive); in the test on SN12C, > 100 µM (inactive). Further, the GI50 in the test on SNB-75 is 19.1 µM (inactive); in the test with CCRF-CEM it was > 100 µM (inactive); with SK-MEL-28 it was > 100 µM (inactive); in the test on SW-620, > 100 µM (inactive); in the test on MOLT-4, > 100 µM (inactive); in the test on ACHN, 61 µM (inactive). The GI50 with U-251 was 52.5 µM (inactive); in the test on A549, > 100 µM (inactive); with HCT-15 it was 24.7 µM; with LOX IMVI, 98.2 µM (inactive); in the test on 786-0, 66.4 µM (inactive).
As to `CC[N+]1(C)CCC(O)(/C=C/c2ccc(Cl)c(Cl)c2)C(C(=O)/C=C/c2ccc(Cl)c(Cl)c2)C1` (centres undefined), the GI50 in the test with SR was 0.406 µM (active); with Malme-3M it was 1.62 µM (inactive); with K562 it was 1.55 µM (inactive); in the test on MDA-MB-435, 2.12 µM (inactive); in the test with NCI-H522, 1.77 µM (inactive); with SN12C, 1.88 µM (inactive). In addition, the GI50 in the test on SNB-75 was 3.78 µM (inactive); in the test with CCRF-CEM, 1.38 µM (inactive); in the test on SK-MEL-28 it was 2.15 µM (inactive); in the test on SW-620, 1.91 µM (inactive); in the test with MOLT-4, 2.28 µM (inactive); with ACHN, 1.98 µM (inactive). For the same molecule, the GI50 in the test on U-251 is 1.77 µM (inactive); in the test with A549 it was 4.41 µM (inactive); in the test on HCT-15 it was 2.17 µM; in the test on LOX IMVI, 1.39 µM (inactive); with 786-0, 1.81 µM (inactive).
Consider `O=C(NNC(=S)Nc1ccc(Br)cc1)c1cc(-c2ccccc2)nc2ccccc12`, for which the GI50 in the test with SR was 20.4 µM (inactive); in the test on Malme-3M it was 17.3 µM (inactive); in the test with K562 it was 25.2 µM (inactive); in the test on MDA-MB-435 it was 17.1 µM (inactive); in the test with NCI-H522, 22.2 µM (inactive); in the test on M14 it was 17 µM (inactive). The GI50 in the test on SN12C was 19.1 µM (inactive); with SNB-75 it was 29.2 µM (inactive); in the test on CCRF-CEM, 22.1 µM (inactive); with SK-MEL-28, 21.1 µM (inactive); in the test with SW-620, 21.2 µM (inactive); with MOLT-4, 22.1 µM (inactive). The GI50 is 34.8 µM (inactive) in the test with ACHN; 16.2 µM (inactive) with U-251; 21 µM (inactive) in the test on A549; 24 µM in the test on HCT-15; 19 µM (inactive) with 786-0.
As to `FC(F)=C(c1ccc(-c2ccc(Cl)cc2)cc1)C(F)(F)F`, the GI50 was 23.3 µM (inactive) in the test with SR; 17.2 µM (inactive) in the test on Malme-3M; 26.2 µM (inactive) in the test on K562; 20.2 µM (inactive) with MDA-MB-435; 20.3 µM (inactive) in the test with NCI-H522; 19.7 µM (inactive) in the test with M14. In addition, the GI50 in the test with SN12C was 20.3 µM (inactive); in the test with SNB-75 it was 11 µM (inactive); in the test on CCRF-CEM, 26.8 µM (inactive); with SK-MEL-28 it was 12.4 µM (inactive); with SW-620, 20 µM (inactive); in the test on MOLT-4 it was 32.3 µM (inactive). In addition, the GI50 with ACHN is 17.3 µM (inactive); in the test with U-251, 16.7 µM (inactive); in the test with A549, 17.9 µM (inactive); with HCT-15 it was 20.4 µM; in the test with 786-0 it was 19.8 µM (inactive).
As to `CC(=O)Nc1cc(N(CCOS(C)(=O)=O)CCOS(C)(=O)=O)ccc1N=O`, the GI50 with SR, in the test on Malme-3M, in the test on K562, in the test with NCI-H522, in the test on M14 and with SNB-75 was > 100 µM (inactive) in each case. Also, the GI50 in the test on CCRF-CEM, in the test with SK-MEL-28, in the test with SW-620, in the test with MOLT-4, in the test on ACHN and in the test on U-251 was > 100 µM (inactive) in each case. Also, the GI50 was > 100 µM (inactive) in the test on A549, > 100 µM in the test with HCT-15 and > 100 µM (inactive) in the test with 786-0.
For `Cc1ccccc1N1C(N)=C(C#N)C(C#N)(C#N)C1c1ccccc1` (centres undefined), the GI50 is 23.9 µM (inactive) in the test with SR; 16.4 µM (inactive) in the test with Malme-3M; 17.7 µM (inactive) in the test with MDA-MB-435; 15.3 µM (inactive) with NCI-H522; 23.4 µM (inactive) in the test on M14; 23.3 µM (inactive) with SN12C. Besides, the GI50 was 26 µM (inactive) in the test with SNB-75; 14.7 µM (inactive) with CCRF-CEM; 17.6 µM (inactive) in the test with SK-MEL-28; 16.3 µM (inactive) in the test with SW-620; 15.6 µM (inactive) in the test on MOLT-4; 16.1 µM (inactive) with ACHN. For the same molecule, the GI50 was 16.7 µM (inactive) in the test on U-251; 26.1 µM (inactive) in the test on A549; 16.6 µM in the test with HCT-15; 17.7 µM (inactive) in the test with LOX IMVI; 17.3 µM (inactive) in the test on 786-0.
On to `O=C(CCn1[nH]c(=O)c(Cl)c(Cl)c1=O)NO`, for which the GI50 in the test with Malme-3M, in the test with K562, in the test on NCI-H522, with M14, in the test with SN12C and with SNB-75 was > 100 µM (inactive) in each case. Besides, the GI50 with CCRF-CEM, in the test with SK-MEL-28, in the test on SW-620, in the test on MOLT-4, in the test with ACHN and in the test with U-251 was > 100 µM (inactive) in each case. In addition, the GI50 with A549 is > 100 µM (inactive); in the test with HCT-15 it was > 100 µM; in the test on LOX IMVI, > 100 µM (inactive); in the test with 786-0, > 100 µM (inactive).
